Key:
[1] = Cytotoxicity against human Calu-3 cells assessed as cell viability at 250 uM incubated for 72 hrs by methylene blue assay relative to control; type: toxicity, cell-based; conditions: read-out: Activity
[2] = test system: SARS-CoV-2; experiment: Antiviral activity against SARS-CoV-2 B.1 lineage isolate infected in human Calu-3 cells assessed as inhibition of viral replication at 10 uM infected with cells for 1 hr followed by compound addition and measured 24 hrs post infection by crystal violet staining based PFU assay relative to control; type: functional; conditions: Severe acute respiratory syndrome coronavirus 2, B.1, Calu-3
[3] = Cytotoxicity against human Calu-3 cells assessed as reduction in cell viability incubated for 72 hrs by methylene blue assay; type: toxicity, cell-based
[4] = test system: SARS-CoV-2; experiment: Antiviral activity against SARS-CoV-2 B.1 lineage isolate infected in human Calu-3 cells assessed as inhibition of viral replication infected with cells for 1 hr followed by compound addition and measured 24 hrs post infection by crystal violet staining based PFU assay; type: functional, organism-based; conditions: Severe acute respiratory syndrome coronavirus 2, B.1, Calu-3
[5] = Selectivity index, ratio of CC50 for cytotoxicity against human Calu-3 cells to EC50 for antiviral activity against SARS-CoV-2 B.1 lineage isolate infected in human Calu-3 cells; type: toxicity, cell-based; conditions: read-out: Ratio CC50/EC50
[6] = test system: SARS-CoV-2; experiment: Antiviral activity against SARS-CoV-2 B.1 lineage isolate infected in human Calu-3 cells assessed as inhibition of viral replication at 1 uM infected with cells for 1 hr followed by compound addition and measured 24 hrs post infection by crystal violet staining based PFU assay relative to control; type: functional; conditions: Severe acute respiratory syndrome coronavirus 2, B.1, Calu-3
[7] = test system: SARS-CoV-2; experiment: Antiviral activity against SARS-CoV-2; type: functional, organism-based; conditions: Severe acute respiratory syndrome coronavirus 2
[8] = test system: SARS-CoV-2; experiment: Potency index, ratio of baicalein EC50 to test compound EC50 for antiviral activity against SARS-CoV-2 infected in human Calu-3 cells assessed as inhibition of viral replication; type: functional, Severe acute respiratory syndrome coronavirus 2
[9] = test system: SARS-CoV-2; experiment: Potency index, ratio of myricetin EC50 to test compound EC50 for antiviral activity against SARS-CoV-2 infected in human Calu-3 cells assessed as inhibition of viral replication; type: functional, Severe acute respiratory syndrome coronavirus 2
[10] = test system: SARS-CoV-2; experiment: Antiviral activity against SARS-CoV-2 B.1 lineage infected in human Calu-3 cells assessed as inhibition of viral replication; type: functional, organism-based; conditions: Severe acute respiratory syndrome coronavirus 2, B.1, Calu-3
[11] = Cytotoxicity against African green monkey Vero E6 cells assessed as reduction in cell viability by CCK8 assay; type: toxicity, cell-based, Vero C1008; conditions: chlorocebus sabaeus
[12] = test system: SARS-CoV-2; experiment: Antiviral activity against SARS-CoV-2 infected in human Calu-3 cells; type: functional, organism-based; conditions: Severe acute respiratory syndrome coronavirus 2, Calu-3
[13] = test system: SARS-CoV-2; experiment: Antiviral activity against SARS-CoV-2 infected in human Calu-3 cells assessed as inhibition of viral replication incubated for 48 hrs by PFU assay; type: functional, organism-based; conditions: Severe acute respiratory syndrome coronavirus 2, Calu-3, 48 h
[14] = test system: SARS-CoV-2; experiment: Antiviral activity against SARS-CoV-2 in presence of ritonavir; type: functional, organism-based; conditions: Severe acute respiratory syndrome coronavirus 2
[15] = test system: SARS-CoV-2; experiment: Antiviral activity against SARS-CoV-2 in presence of lopinavir; type: functional, organism-based; conditions: Severe acute respiratory syndrome coronavirus 2

| SMILES | viability at 72 h, 250 µM [1] [%] | inhibition at 10 µM [2] [%] | CC50 at 72 h [3] [µM] | EC50 [4] [µM] | selectivity ratio [5] | inhibition at 1 µM [6] [%] | further results |
| --- | --- | --- | --- | --- | --- | --- | --- |
| COc1ccc(/C=C2\Oc3cc(O)ccc3C2=O)cc1 | ≥ 80 | 24 | > 250 | > 10 |  |  |  |
| COc1ccc2c(c1)O/C(=C\c1ccc(O)cc1)C2=O | ≥ 80 | 88.3 | > 300 | 2.8 | > 107 | 25 |  |
| COc1ccc(/C=C2\Oc3cc(O)cc(O)c3C2=O)cc1 | ≥ 80 | 68.4 |  |  |  |  |  |
| O=C1/C(=C/c2ccc3c(c2)OCO3)Oc2ccccc21 | ≥ 80 | 44.6 |  |  |  | 69.5 |  |
| COc1cc(/C=C2\Oc3ccccc3C2=O)cc(OC)c1OC | ≥ 80 | 66.4 | > 250 | 5.8 | > 43.1 |  |  |
| COc1ccc(/C=C2\Oc3cc(OC)ccc3C2=O)cc1 | ≥ 80 | 94.8 | > 300 | 1.5 | > 200 | 46.5 |  |
| CCC(CC)COC(=O)[C@H](C)N[P@](=O)(OC[C@H]1O[C@@](C#N)(c2ccc3c(N)ncnn23)[C@H](O)[C@@H]1O)Oc1ccccc1 |  |  |  |  |  |  | EC50 [7]: 2.5 µM |
| COc1ccc(/C=C2\Oc3cc(O)ccc3C2=O)cc1O | ≥ 80 | 24.4 | > 250 | 5.6 | > 44.6 | 70.4 |  |
| COc1ccc(/C=C2\Oc3cc(OC(F)F)ccc3C2=O)cc1 | ≥ 80 | 97.1 | > 300 | 0.9 | > 333 | 69.9 |  |
| COCOc1cc(/C=C2\Oc3ccccc3C2=O)ccc1OC | ≥ 80 | 97.6 | > 300 | 1 | > 300 | 60.3 |  |
| COCOc1ccc2c(c1OCOC)O/C(=C\c1ccc(OC)cc1)C2=O | ≥ 80 | 58.2 |  |  |  | < 1 |  |
| COCOc1cc(OCOC)c2c(c1)O/C(=C\c1ccc(OC)cc1)C2=O | ≥ 80 | 95.2 |  |  |  | < 1 |  |
| COCOc1cc(/C=C2\Oc3cc(OC)ccc3C2=O)ccc1OC | ≥ 80 | 88.2 | > 1000 | 2.3 | > 435 | 34.1 |  |
| COCOc1ccc2c(c1)O/C(=C\c1ccc(OC)cc1OCOC)C2=O | ≥ 80 | 96.2 | 976 | 0.35 | 2440 | 82.5 | Ratio EC50 [8]: 3; Ratio EC50 [9]: 2 |
| COc1ccc(/C=C2\Oc3cc(OCc4ccccc4)ccc3C2=O)cc1 | ≥ 80 | 91 | > 300 | 2.2 | > 136 | 36.1 |  |
| COc1ccc2c(c1)O/C(=C\c1ccccc1)C2=O | ≥ 80 | 99.7 | > 1000 | 0.49 | > 2000 | 59.1 |  |
| COc1ccc(/C=C2\Oc3cc4c(cc3C2=O)OCO4)cc1 | ≥ 80 | 95.8 | > 1000 | 2 | > 500 | 32.5 |  |
| COc1cccc2c1C(=O)/C(=C/c1ccccc1)O2 | ≥ 80 | 90.9 |  |  |  | < 1 |  |

| SMILES | viability at 72 h, 250 µM [1] [%] | inhibition at 10 µM [2] [%] | CC50 at 72 h [3] [µM] | EC50 [4] [µM] | selectivity ratio [5] | inhibition at 1 µM [6] [%] | further results |
| --- | --- | --- | --- | --- | --- | --- | --- |
| COCOc1cc(OC)ccc1/C=C1\Oc2ccccc2C1=O | ≥ 80 | 58.3 | > 250 | 8.2 | > 30.5 |  |  |
| COCOc1ccc2c(c1)O/C(=C\c1ccc(OC)cc1)C2=O | ≥ 80 | 98 | > 1000 | 0.58 | > 1670 | 77.6 |  |
| COc1ccc(/C=C2\Oc3cc(OCc4ccc(F)cc4)ccc3C2=O)cc1 | ≥ 80 | 85.2 | > 300 | 2.9 | > 104 | 14.5 |  |
| COc1ccc(/C=C2\Oc3c(ccc(O)c3O)C2=O)cc1 | ≥ 80 | 62.2 | > 300 | 4.6 | > 65.2 | 25.9 |  |
| COCOc1ccc2c(c1)O/C(=C\c1ccc(OC)c(OCOC)c1)C2=O | ≥ 80 | 95.4 | 817 | 0.5 | 1630 | 77 |  |
| O=C1/C(=C/c2ccc(Cl)cc2)Oc2ccccc21 | ≥ 80 | 68.8 |  |  |  |  |  |
| COc1ccc(/C=C2\Oc3ccccc3C2=O)cc1 [4'-METHOXY-AURONE] | ≥ 80 | 66.9 |  |  |  | 29.2 |  |
| O=C1/C(=C/c2ccccc2)Oc2ccccc21 [(Z)-AURONE] | ≥ 80 | 81.2 |  |  |  | < 1 |  |
| O=c1cc(-c2ccc(O)cc2)oc2cc(O)cc(O)c12 [APIGENIN] |  |  |  |  |  |  | EC50 [10]: 5.1 µM |
| O=c1cc(-c2ccccc2)oc2cc(O)c(O)c(O)c12 [BAICALEIN] |  |  |  |  |  |  | CC50 [11]: > 200 µM; EC50 [12]: 1.2 µM |
| O=c1c(O)c(-c2ccc(O)cc2)oc2cc(O)cc(O)c12 [KAEMPFEROL] |  |  |  |  |  |  | EC50 [10]: 3 µM |
| COc1cc(O)c2c(=O)c(OC)c(-c3ccc(O)cc3)oc2c1 [KUMATAKENIN] |  |  |  |  |  |  | EC50 [13]: 0.3 µM |
| Cc1cccc(C)c1OCC(=O)N[C@@H](Cc1ccccc1)[C@@H](O)C[C@H](Cc1ccccc1)NC(=O)[C@H](C(C)C)N1CCCNC1=O [LOPINAVIR] |  |  |  |  |  |  | EC50 [14]: 5 µM |
| CC(C)C(=O)OC[C@H]1O[C@@H](n2cc/c(=N\O)[nH]c2=O)[C@H](O)[C@@H]1O [MOLNUPIRAVIR] |  |  |  |  |  |  | EC50 [7]: 2 µM |
| O=c1c(O)c(-c2cc(O)c(O)c(O)c2)oc2cc(O)cc(O)c12 [MYRICETIN] |  |  |  |  |  |  | EC50 [10]: 0.9 µM |
| O=c1c(O)c(-c2ccc(O)c(O)c2)oc2cc(O)cc(O)c12 [QUERCETIN] |  |  |  |  |  |  | EC50 [10]: 2.4 µM |
| COc1cc(O)c2c(=O)c(OC)c(-c3ccc(OC)c(OC)c3)oc2c1 [RETUSIN] |  |  |  |  |  |  | EC50 [13]: 0.6 µM |
| CC(C)c1nc(CN(C)C(=O)N[C@H](C(=O)N[C@@H](Cc2ccccc2)C[C@H](O)[C@H](Cc2ccccc2)NC(=O)OCc2cncs2)C(C)C)cs1 [RITONAVIR] |  |  |  |  |  |  | EC50 [15]: 5 µM |

From ChEMBL document CHEMBL5321246, “Aurones: A Promising Scaffold to Inhibit SARS-CoV-2 Replication” (J Nat Prod, 2023)
